The values that follow come from ChEMBL document CHEMBL2062512, “Metronidazole thiosalicylate conjugates: synthesis, crystal structure, docking studies and antiamoebic activity” (Bioorg Med Chem Lett, 2012).

For orientation: IC50 means the concentration that gives 50% inhibition. High values mean a need for much substance, low ones inhibition by little substance.

Assay [1] concerns Entamoeba histolytica. Nature of the assay: […] activity against Entamoeba histolytica HM-1:IMSS after 72 hrs by eosin-staining method. The assay is classed as functional, organism-based.
Assay [2] concerns MCF7. Nature of the assay: Cytotoxicity against human MCF7 cells after 48 hrs by MTT assay. As to conditions: MCF7, 48 h. It counts as cell-based. (In general: Formazan colour is commonly taken as a measure of viable cells.)

Consider `COC(=O)c1ccccc1S(=O)(=O)CCn1c([N+](=O)[O-])cnc1C`, for which the IC50 in assay [1] was 21 nM; in assay [2], above 250000 nM.
Molecule `Cc1ncc([N+](=O)[O-])n1CCO` [METRONIDAZOLE] returned a half-maximal inhibitory concentration (IC50) in assay [2] above 250000 nM.
For `COC(=O)c1ccccc1SCCn1c([N+](=O)[O-])cnc1C`, the results for the IC50 in assay [1] and in assay [2] were 28 nM and above 250000 nM, respectively.
Taken in the same sequence, the figures for `COC(=O)c1ccccc1[S+]([O-])CCn1c([N+](=O)[O-])cnc1C` (configuration not stated) were 15 nM and above 250000 nM.
